The test system of experiment [1] is Strep. mutans ATCC 25175. In words: Biofilm disruption assay on hydroxyapatite discs. The format is cell-based, Streptococcus mutans. The following applies: Strep. mutans ATCC 25175 biofilm, DOSS 1.0% (w/v), CHX 0.2% (w/v). The protocol:
(§1) This assay was designed to determine quantitatively the relative potency of a test compound to disrupt (effectively kill) biofilms formed by a test organism on hydroxyapatite (HA) discs.
(§2) Biofilms were formed on sterile dense ceramic HA discs 7 mm diameter x 1.8 mm thick (Clarkson Chromatography) by placing the discs in the appropriate liquid media (as described above) inoculated with the test organism (0.5×10^8 cfu/ml). The HA discs were then incubated at 37° C. for ˜48 h in a 5% CO2 atmosphere (for Strep. mutans ATCC 25175) or ˜96 h under anaerobic conditions (for Por. gingivalis 381). Following the incubation period the supernatant was removed from the wells containing the HA discs and the discs were washed×3 with fresh media to ensure all planktonic cells were removed. The HA discs were then transferred to sterile bijoux bottles containing 1 ml of phosphate buffered saline (PBS) plus test compound(s) at the required concentration. After a set time period (usually 2 and/or 5 min), the HA disc was transferred to another sterile bijoux containing 1 ml of fresh growth media. Adherent cells were then harvested by vigorous vortexing for 2 minutes. A sample was then taken, serially diluted 10-fold in fresh growth media and inoculated onto agar plates in triplicate. Untreated HA discs, and HA discs added to PBS containing only the solvents used to dissolve the test compound(s), acted as controls.
(§3) The plates were then incubated as described above and subsequently examined visually for growth. Colonies were counted at an appropriate serial dilution (5-50 individual colonies visible) with the aid of a colony counter. These measurements were then converted to numbers of colony forming units (cfu), using the formula: cfu/ml=number of colonies×serial dilution factor×100 (as only a 10 μl sample was taken).
(§4) These cfu values were then converted into log10 values and plotted graphically against time of sample removal.
(§5) At each time point, samples were assessed in triplicate; the final cfu/ml value was an average (mean) of the three readings.
(§6) Biofilm disruption assays, as described above, were carried out using DOSS as the test compound and chlorhexidine (CHX) as a positive control. For these experiments, the DOSS was tested at 0.5% w/v against Por. gingivalis and 1% w/v against Strep. mutans. The ahlorhexidine was tested at a concentration of 0.2% w/v against both micro-organisms. The DOSS was dissolved in ethanol and the chlorhexidine in distilled water. All the experiments were conducted in triplicate.

The next experiment deals with P. granulosum PRP-005. In words: Agar dilution MIC assay. The format is cell-based, Propionibacterium granulosum. Conditions: P. granulosum PRP-005 (MLSK). The protocol: (§7) The propionibacteria were cultured and maintained on Wilkins-Chalgren Anaerobe Medium (agar and broth) at pH 6.0; all cultures were incubated anaerobically at 37° C. for 72 hours.
(§8) This is a standard international method for quantitatively assessing the antimicrobial activity of a compound in a solid medium. The test compound was prepared to 40× the highest concentration required (eg, 10 mg/ml for a final concentration of 250 μg/ml) and a series of doubling dilutions were performed in a suitable solvent. A set amount of these antimicrobial stock solutions was then added to molten agar medium (ca. 55° C.), mixed thoroughly, poured into sterile Petri dishes and allowed to cool/set.
(§9) A Multipoint™ Inoculator (AQS Manufacturing Ltd, UK) was used to inoculate the plates by spotting the inocula onto the surface of the agar, delivering approximately 1 to 2 μl per spot (yielding 10^5 CFU(colony forming units) per spot).
(§10) The plate(s) were then incubated under the conditions described above, following which they were examined visually for signs of bacterial growth. The MIC value was ascertained when there was a marked reduction in, or total loss of, growth on the test plate at the lowest concentration as compared to that of the growth on the control plate.
(§11) The assays were conducted in duplicate and included a positive control (culture medium, diluting solvent and inoculum).

In another experiment the test system is P. granulosum PRP-055. In words: Agar dilution MIC assay. In kind it is cell-based, Propionibacterium granulosum. Conditions: P. granulosum PRP-055 (resistance None). The protocol:
as §7, §8, §9, §10, §11

The next experiment deals with P. granulosum PRP-043. Kind of experiment: Agar dilution MIC assay. In kind it is cell-based, Propionibacterium granulosum. The following applies: P. granulosum PRP-043 (MLS). The protocol: as §7, §8, §9, §10, §11
A further experiment deals with P. granulosum PRP-019. Kind of experiment: Agar dilution MIC assay. In kind it is cell-based, Propionibacterium granulosum. Conditions: P. granulosum PRP-019 (MLSK). The protocol: as §7, §8, §9, §10, §11
For the next experiment, the system named is P. granulosum PRP-044. In words: Agar dilution MIC assay. In kind it is cell-based, Propionibacterium granulosum. Conditions: P. granulosum PRP-044 (MLS). The protocol:
as §7, §8, §9, §10, §11

For a further experiment, the system named is P. granulosum PRP-021. Kind of experiment: Agar dilution MIC assay. The format is cell-based, Propionibacterium granulosum. Conditions: P. granulosum PRP-021 (MLS). The protocol: as §7, §8, §9, §10, §11
For a further experiment, the system named is P. granulosum NCTC 11865. Kind of experiment: Agar dilution MIC assay. The following applies: P. granulosum NCTC 11865 (resistance None). In kind it is cell-based, Propionibacterium granulosum. The protocol:
as §7, §8, §9, §10, §11

The test system of the next experiment is Por. gingivalis 381. In words: Biofilm disruption assay on hydroxyapatite discs. Conditions: Por. gingivalis 381 biofilm, DOSS 0.5% (w/v), CHX 0.2% (w/v). In kind it is cell-based, Porphyromonas gingivalis. The protocol:
as §1, §2, §3, §4, §5, §6

The subject of experiment [2] is Strep. mutans ATCC 25175. Kind of experiment: MBC assay. In kind it is cell-based, Streptococcus mutans. The protocol:
The S. mutans was cultured and maintained on Wilkins-Chalgren Anaerobe Medium (agar and broth) at pH 7.0 supplemented with 1 g/L glucose; all cultures were incubated at 37° C. for 48 h in an atmosphere containing 5% CO2. This assay, normally carried out after an MIC assay, determines the rnininiurn concentration of a compound that is lethal to the micro-organism being tested. […] These samples were then individually sub-cultured on antibiotic-free agar medium, under the incubation conditions described above. Following incubation they were examined visually for microbial growth.

Turning to dioctyl sodium sulphosuccinate [DOSS], the Viable cell counts with Strep. mutans ATCC 25175 [1] (0 min) stood at 6.56 log10 cfu/ml; with Strep. mutans ATCC 25175 [1] (2 min), 2.87 log10 cfu/ml; in the experiment with Strep. mutans ATCC 25175 [1] (5 min), 3.36 log10 cfu/ml; in the experiment with Por. gingivalis 381 (0 min) it was 7.53 log10 cfu/ml; in the experiment with Por. gingivalis 381 (2 min) it was 5.08 log10 cfu/ml; with Por. gingivalis 381 (5 min) it was 3.34 log10 cfu/ml. The MIC against P. granulosum PRP-005 is 15.6 µg/mL; in the experiment with P. granulosum PRP-055 it was 31.25 µg/mL; against P. granulosum PRP-043 it was 31.25 µg/mL; in the experiment on P. granulosum PRP-019, 15.6 µg/mL; with P. granulosum PRP-044, 31.25 µg/mL; in the experiment on P. granulosum PRP-021 it was 31.25 µg/mL. In the experiment on P. granulosum NCTC 11865, this substance displayed a minimal inhibitory concentration (MIC) of 31.25 µg/mL. The substance also yielded an MBC against Strep. mutans ATCC 25175 [2] of 15.6 µg/mL. The MIC/MBC ratio in the experiment on Strep. mutans ATCC 25175 [2] was 1.
